The source of these data is US20240254118A1, “PRMT5 INHIBITORS AND USES THEREOF” (Gilead Sciences, Inc., priority 2022, published 2024).

For orientation: CC50 means the concentration at which the toxic effect on the cells reaches its halfway point.

The test relates to HCT116 MTAP-deleted cells. Nature of the test: Cell viability assay (CellTiter-Glo, 7 days), HCT116 MTAP-deleted. Conditions: Homo sapiens, HCT-116, 168 h. On the technique in general: Cellular ATP, detected with luciferase, serves as a proxy for viable cell number.
Regarding `CC(=O)N(C)N(Cc1nc(-c2ccccc2)cs1)C(=O)c1ccc2nc(N)c3cnn(C)c3c2c1` [Example 429, N′-acetyl-4-amino-N′,1-dimethyl-N-((4-phenylthiazol-2-yl)methyl)-1H-pyrazolo[4,3-c]quinoline-8-carbohydrazide], the CC50 is < 100 nM. As for `CC(=O)N(C)N(Cc1c(F)cc(-c2cnn(C)c2)cc1F)C(=O)c1ccc2nc(N)c3cnn(C)c3c2c1` [Example 380, N′-acetyl-4-amino-N-[[2,6-difluoro-4-(1-methylpyrazol-4-yl)phenyl]methyl]-N′,1-dimethyl-pyrazolo[4,3-c]quinoline-8-carbohydrazide], the half-maximal cytotoxic concentration (CC50) is < 100 nM.

As to `CC(=O)N(C)N(Cc1cc(F)c(C(F)(F)F)cc1F)C(=O)c1ccc2nc(N)c3cnn(C)c3c2c1` [Example 368, N′-acetyl-4-amino-N-(2,5-difluoro-4-(trifluoromethyl)benzyl)-N′, 1-dimethyl-1H-pyrazolo[4,3-c]quinoline-8-carbohydrazide], the CC50 is < 100 nM. With `Cn1ncc2c(N)nc3cc(F)c(C(=O)N(Cc4ccc(C(F)(F)F)cn4)N4CC5(CC5)COC4=O)cc3c21` [Example 320, 4-amino-7-fluoro-1-methyl-N-(6-oxo-5-oxa-7-azaspiro[2.5]octan-7-yl)-N-((5-(trifluoromethyl)pyridin-2-yl)methyl)-1H-pyrazolo[4,3-c]quinoline-8-carboxamide], the CC50 was < 100 nM. Consider `CN(C(=O)C1CC1)N(Cc1ccc(-c2ccn(C(F)F)n2)cc1F)C(=O)c1ccc2nc(N)c3cnn(C)c3c2c1` [Example 312, 4-amino-N′-(cyclopropanecarbonyl)-N-(4-(1-(difluoromethyl)-1H-pyrazol-3-yl)-2-fluorobenzyl)-N′,1-dimethyl-1H-pyrazolo[4,3-c]quinoline-8-carbohydrazide], for which the CC50 was < 100 nM. As to `CN(C(=O)C1CC1)N(Cc1ccc(OC(F)F)cc1F)C(=O)c1ccc2nc(N)c3cnn(C)c3c2c1` [Example 317, 4-amino-N′-(cyclopropanecarbonyl)-N-(4-(difluoromethoxy)-2-fluorobenzyl)-N′,1-dimethyl-1H-pyrazolo[4,3-c]quinoline-8-carbohydrazide], the CC50 was < 100 nM. Consider `CC(=O)N(C)N(Cc1ccc(C(F)(F)F)c(F)c1F)C(=O)c1ccc2nc(N)c3cnn(C)c3c2c1` [Example 371, N′-acetyl-4-amino-N-(2,3-difluoro-4-(trifluoromethyl)benzyl)-N′,1-dimethyl-1H-pyrazolo[4,3-c]quinoline-8-carbohydrazide], for which the CC50 was < 100 nM. For the molecule `CC(=O)N(C)N(Cc1ccc(-c2cnn(C(F)F)c2)nc1F)C(=O)c1ccc2nc(N)c3cnn(C)c3c2c1` [Example 348, N′-acetyl-4-amino-N-((6-(1-(difluoromethyl)-1H-pyrazol-4-yl)-2-fluoropyridin-3-yl)methyl)-N′,1-dimethyl-1H-pyrazolo[4,3-c]quinoline-8-carbohydrazide], the CC50 is < 100 nM. Take `CC(=O)N(C)N(Cc1nc2cc(F)c(F)cc2n1C)C(=O)c1ccc2nc(N)c3cnn(C)c3c2c1` [Example 424, N′-acetyl-4-amino-N-((5,6-difluoro-1-methyl-1H-benzo[d]imidazol-2-yl)methyl)-N′,1-dimethyl-1H-pyrazolo[4,3-c]quinoline-8-carbohydrazide]: the half-maximal cytotoxic concentration (CC50) is < 100 nM. On to `COCc1cc(C(F)(F)F)ccc1CN(C(=O)c1ccc2nc(N)c3cnn(C)c3c2c1)N(C)C(=O)C1CC1` [Example 316, 4-amino-N′-(cyclopropanecarbonyl)-N-(2-(methoxymethyl)-4-(trifluoromethyl)benzyl)-N′,1-dimethyl-1H-pyrazolo[4,3-c]quinoline-8-carbohydrazide], for which the CC50 was < 100 nM. `CC(=O)N(C)N(Cc1cc(F)c(F)c(F)c1)C(=O)c1ccc2nc(N)c3cnn(C)c3c2c1` [Example 414, N′-acetyl-4-amino-N′,1-dimethyl-N-(3,4,5-trifluorobenzyl)-1H-pyrazolo[4,3-c]quinoline-8-carbohydrazide] came in with a CC50 of 100 to 1000 nM.

As to `Cn1ncc2c(N)nc3ccc(C(=O)N(Cc4ccn(-c5ccccc5F)n4)NC(=O)C4CC4)cc3c21` [Example 434, 4-amino-N′-(cyclopropanecarbonyl)-N-((1-(2-fluorophenyl)-1H-pyrazol-3-yl)methyl)-1-methyl-1H-pyrazolo[4,3-c]quinoline-8-carbohydrazide], the CC50 is < 100 nM. Then `CC(=O)N(C)N(Cc1ccc(-c2ccc(C(F)(F)F)cn2)cc1F)C(=O)c1ccc2nc(N)c3cnn(C)c3c2c1` [Example 224, N′-acetyl-4-amino-N-(2-fluoro-4-(5-(trifluoromethyl)pyridin-2-yl)benzyl)-N′,1-dimethyl-1H-pyrazolo[4,3-c]quinoline-8-carbohydrazide], with < 100 nM; and `CC(=O)N(C)N(Cc1ccc(-c2cc(C(F)(F)F)ccn2)cc1F)C(=O)c1ccc2nc(N)c3cnn(C)c3c2c1` [Example 225, N′-acetyl-4-amino-N-(2-fluoro-4-(4-(trifluoromethyl)pyridin-2-yl)benzyl)-N′,1-dimethyl-1H-pyrazolo[4,3-c]quinoline-8-carbohydrazide], with < 100 nM; and `CN(C(=O)C1CC1)N(Cc1ccc(C(F)F)cn1)C(=O)c1ccc2nc(N)c3cnn(C)c3c2c1` [Example 370, 4-amino-N′-(cyclopropanecarbonyl)-N-((5-(difluoromethyl)pyridin-2-yl)methyl)-N′,1-dimethyl-1H-pyrazolo[4,3-c]quinoline-8-carbohydrazide], with < 100 nM. For the molecule `CN(C(=O)C1CC1)N(Cc1ncc(C(F)(F)F)cc1Cl)C(=O)c1ccc2nc(N)c3cnn(C)c3c2c1` [Example 446, 4-amino-N-((3-chloro-5-(trifluoromethyl)pyridin-2-yl)methyl)-N′-(cyclopropanecarbonyl)-N′,1-dimethyl-1H-pyrazolo[4,3-c]quinoline-8-carbohydrazide], the cytotoxic concentration (CC50) is < 100 nM. As for `CC(=O)N(C)N(Cc1ccc(-c2cccnc2)cc1F)C(=O)c1ccc2nc(N)c3cnn(C)c3c2c1` [Example 241, N′-acetyl-4-amino-N-(2-fluoro-4-(pyridin-3-yl)benzyl)-N′,1-dimethyl-1H-pyrazolo[4,3-c]quinoline-8-carbohydrazide], the cytotoxic concentration (CC50) was < 100 nM.

Regarding `CC(=O)N(C)N(Cc1c(F)cc(-c2cnn(C3CC3)c2)cc1F)C(=O)c1ccc2nc(N)c3cnn(C)c3c2c1` [Example 381, N′-acetyl-4-amino-N-[[4-(1-cyclopropylpyrazol-4-yl)-2,6-difluoro-phenyl]methyl]-N′,1-dimethyl-pyrazolo[4,3-c]quinoline-8-carbohydrazide], the CC50 was < 100 nM. Turning to `CN(C(=O)C1CC1)N(Cc1ccc(Br)cn1)C(=O)c1ccc2nc(N)c3cnn(C)c3c2c1` [Example 354, 4-amino-N-((5-bromopyridin-2-yl)methyl)-N′-(cyclopropanecarbonyl)-N′,1-dimethyl-1H-pyrazolo[4,3-c]quinoline-8-carbohydrazide], the 50% cytotoxic concentration (CC50) was < 100 nM.

For the molecule `CC(=O)N(C)N(Cc1ccc(-c2cnoc2)cc1F)C(=O)c1ccc2nc(N)c3cnn(C)c3c2c1` [Example 227, N′-acetyl-4-amino-N-(2-fluoro-4-(isoxazol-4-yl)benzyl)-N′,1-dimethyl-1H-pyrazolo[4,3-c]quinoline-8-carbohydrazide], the cytotoxic concentration (CC50) is < 100 nM. In the case of `CN(C(=O)C1CC1)N(Cc1cc(F)c(-c2cnn(C(F)F)c2)cc1F)C(=O)c1ccc2nc(N)c3cnn(C)c3c2c1` [Example 314, 4-amino-N′-(cyclopropanecarbonyl)-N-(4-(1-(difluoromethyl)-1H-pyrazol-4-yl)-2,5-difluorobenzyl)-N′,1-dimethyl-1H-pyrazolo[4,3-c]quinoline-8-carbohydrazide], the cytotoxic concentration (CC50) was < 100 nM. As for `CC(=O)N(C)N(Cc1ccc(-c2cnn(C(F)F)c2)cc1C#N)C(=O)c1ccc2nc(N)c3cnn(C)c3c2c1` [Example 252, N′-acetyl-4-amino-N-(2-cyano-4-(1-(difluoromethyl)-1H-pyrazol-4-yl)benzyl)-N′,1-dimethyl-1H-pyrazolo[4,3-c]quinoline-8-carbohydrazide], the CC50 is < 100 nM. Then `CC(=O)N(C)N(Cc1ccc(C(F)(F)F)cc1C)C(=O)c1ccc2nc(N)c3cnn(C)c3c2c1` [Example 410, N′-acetyl-4-amino-N′,1-dimethyl-N-(2-methyl-4-(trifluoromethyl)benzyl)-1H-pyrazolo[4,3-c]quinoline-8-carbohydrazide], with < 100 nM; and `CC(=O)N(C)N(Cc1nc2ccc(Cl)cc2n1C)C(=O)c1ccc2nc(N)c3cnn(C)c3c2c1` [Example 426, N′-acetyl-4-amino-N-((6-chloro-1-methyl-1H-benzo[d]imidazol-2-yl)methyl)-N′,1-dimethyl-1H-pyrazolo[4,3-c]quinoline-8-carbohydrazide], with < 100 nM. As to `CC(=O)N(C)N(Cc1ccc(-c2cnn(C(F)(F)F)c2)cc1C#N)C(=O)c1ccc2nc(N)c3cnn(C)c3c2c1` [Example 251, N′-acetyl-4-amino-N-(2-cyano-4-(1-(trifluoromethyl)-1H-pyrazol-4-yl)benzyl)-N′,1-dimethyl-1H-pyrazolo[4,3-c]quinoline-8-carbohydrazide], the CC50 is < 100 nM. With `CN(C(=O)C1CC1)N(Cc1ccc(-c2cncs2)cn1)C(=O)c1ccc2nc(N)c3cnn(C)c3c2c1` [Example 355, 4-amino-N′-(cyclopropanecarbonyl)-N′,1-dimethyl-N-((5-(thiazol-5-yl)pyridin-2-yl)methyl)-1H-pyrazolo[4,3-c]quinoline-8-carbohydrazide] the figure was < 100 nM; with `CC(=O)N(C)N(Cc1ccc(-c2cnc(C(F)(F)F)s2)cc1F)C(=O)c1ccc2nc(N)c3cnn(C)c3c2c1` [Example 217, N′-acetyl-4-amino-N-(2-fluoro-4-(2-(trifluoromethyl)thiazol-5-yl)benzyl)-N′,1-dimethyl-1H-pyrazolo[4,3-c]quinoline-8-carbohydrazide], < 100 nM. Consider `CC(=O)N(C)N(Cc1c(F)cc2c(ccn2C)c1F)C(=O)c1ccc2nc(N)c3cnn(C)c3c2c1` [Example 411, N′-acetyl-4-amino-N-((4,6-difluoro-1-methyl-1H-indol-5-yl)methyl)-N′,1-dimethyl-1H-pyrazolo[4,3-c]quinoline-8-carbohydrazide], for which the CC50 was < 100 nM.
